# Calls of active or inactive are those of the source.
# Key:
# [1] = system: Vero; assay: cells; format: functional, cell-based; settings: Chlorocebus sabaeus
# [2] = target: T1, Fatty acid synthase (Homo sapiens, UniProt P49327); assay: FAS thioesterase domain inhibitors, dose response, biochemical, endpoint fluorescence intensity, uHTS hits (AID 624327); format: functional;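 also: fluorescence from hydrolysis of an O-methyl fluorescein acyl ester substrate by the enzyme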
# [3] = target: T1, Fatty acid synthase; assay: FAS thioesterase domain inhibitors, dose response, biochemical, kinetic fluorescence intensity (AID 624326); format: functional;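 also: rate of fluorescence rise from hydrolysis of a fluorogenic O-methyl fluorescein ester substrate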
# [4] = target: T2, Small ubiquitin-related modifier 1 (Homo sapiens, UniProt P63165); assay: inhibitors of SUMO1 partner interactions, dose response, biochemical, FRET (AID 624383); format: functional; settings: read-out: IC50_Mean
# [5] = target: T2, Small ubiquitin-related modifier 1; assay: inhibitors of SUMO1 peptide binding, dose response, biochemical, fluorescence polarization, uHTS hits (AID 624382); format: functional; settings: read-out: IC50_Mean
# [6] = system: Vero; assay: cells; format: functional; settings: Chlorocebus sabaeus
# [7] = microbe, parasite or virus in culture; format: functional; settings: Mycobacterium tuberculosis
# [8] = target: T3, Protein skinhead-1 (Caenorhabditis elegans, UniProt P34707); format: functional
# T3 sequence (P34707 whole entry): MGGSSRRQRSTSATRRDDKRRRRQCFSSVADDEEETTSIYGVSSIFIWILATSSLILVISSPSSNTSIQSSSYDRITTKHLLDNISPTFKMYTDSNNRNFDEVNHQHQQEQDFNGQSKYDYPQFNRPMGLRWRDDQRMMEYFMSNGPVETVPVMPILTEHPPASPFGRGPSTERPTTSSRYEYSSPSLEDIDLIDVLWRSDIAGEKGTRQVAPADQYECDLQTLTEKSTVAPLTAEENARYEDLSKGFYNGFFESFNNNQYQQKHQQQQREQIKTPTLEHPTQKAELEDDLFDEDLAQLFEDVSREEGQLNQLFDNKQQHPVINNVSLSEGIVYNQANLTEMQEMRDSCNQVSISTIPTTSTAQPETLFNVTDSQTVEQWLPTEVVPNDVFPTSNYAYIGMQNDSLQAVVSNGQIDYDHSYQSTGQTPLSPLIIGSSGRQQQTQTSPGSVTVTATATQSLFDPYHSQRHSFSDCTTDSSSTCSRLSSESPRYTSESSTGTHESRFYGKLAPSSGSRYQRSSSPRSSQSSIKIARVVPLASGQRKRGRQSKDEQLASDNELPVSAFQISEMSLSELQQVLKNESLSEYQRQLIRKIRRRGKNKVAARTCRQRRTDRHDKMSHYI
# [9] = target: FAD-linked sulfhydryl oxidase ALR (Homo sapiens, UniProt P55789); assay: inhibitors of human ALR sulfhydryl oxidase, dose response, biochemical, H2O2 detection, luminescence, cherry-pick (AID 493248)
# [10] = target: T4, Polyadenylate-binding protein 1 (Homo sapiens, UniProt P11940); assay: PABP1 MLLE–PAM2 binding inhibitor potency, dose response, biochemical, fluorescence polarization, FITC-PAM2 peptide (AID 602259); format: functional; settings: read-out: IC50_Mean
# [11] = target: T4, Polyadenylate-binding protein 1; assay: PABP1 MLLE–PAM2 interaction inhibitors, dose response, miRNA deadenylation inhibitor project, biochemical, fluorescence polarization, Cy5-PAM2 peptide, secondary (AID 602260); format: functional; settings: read-out: IC50_Mean
# [12] = target: Cytochrome P450 3A4 (Homo sapiens, UniProt P08684); settings: Potency;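 also: confirmatory qHTS run detecting inhibitors and substrates of CYP3A4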
# [13] = cells; format: functional, cell-based
# [14] = cells; format: functional, cell-based; remark: listed apart in the source
# [15] = target: Large T antigen (Simian virus 40, UniProt P03070); format: functional, Betapolyomavirus macacae;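 also: Confirmatory-stage PubChem screen for compounds that inhibit SV40 T antigen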
# [16] = target: Paired box protein Pax-8 (Homo sapiens, UniProt Q06710); assay: inhibitors of PAX8-driven TPO luciferase reporter, dose response, RMG-I cells, cherry-pick (AID 687027); format: functional, cell-based;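 also: luciferase reporter driven by Pax8 target thyroperoxidase promoter measured by SteadyGlo luminescence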
# [17] = HEp-2 cell cytotoxicity, dose response, cytotoxicity control for RSV inhibitor project, HTS (AID 2410); format: functional; settings: human respiratory syncytial virus
# [18] = target: T5, Carboxy-terminal domain RNA polymerase II polypeptide A small phosphatase 1 (Homo sapiens, UniProt Q9GZU7); assay: inhibitors of CTDSP1, concentration-response testing, biochemical assay, absorbance-based, actives from ultra-high-throughput screening (AID 540297); format: functional
# T5 sequence (Q9GZU7 whole entry): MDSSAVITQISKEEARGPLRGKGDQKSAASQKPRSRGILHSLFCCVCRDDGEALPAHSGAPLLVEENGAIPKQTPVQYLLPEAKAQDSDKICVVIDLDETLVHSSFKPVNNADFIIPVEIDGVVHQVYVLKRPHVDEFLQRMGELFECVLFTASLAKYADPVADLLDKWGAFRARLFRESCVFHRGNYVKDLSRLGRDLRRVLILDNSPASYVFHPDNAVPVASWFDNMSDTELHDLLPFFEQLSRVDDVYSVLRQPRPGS
# [19] = cells; format: functional, cell-based; remark: listed apart in the source
# [20] = cells; format: functional, cell-based; remark: listed apart in the source
# [21] = target: Genome polyprotein (dengue virus type 2, UniProt P29990); assay: Dengue-2 NS5 methyltransferase inhibitors, primary screen, biochemical, confirmation dose response (AID 588689); format: functional
# [22] = target: Heat shock protein HSP 90-alpha (Homo sapiens, UniProt P07900); format: functional, organism-based
# [23] = target: Photoreceptor-specific nuclear receptor (Homo sapiens, UniProt Q9Y5X4); format: functional, cell-based;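 also: CHO-S cells with Gal4-NCOR and VP16-NR2E3 two-hybrid luciferase reporter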
# [24] = target: T6, Microphthalmia-associated transcription factor (Homo sapiens, UniProt O75030); assay: TRPM1 promoter luciferase signal decrease, dose response, MITF inhibitor project, cell-based, SK-MEL-5, cherry-picked, set 3 (AID 493073); format: functional
# T6 sequence (O75030 whole entry): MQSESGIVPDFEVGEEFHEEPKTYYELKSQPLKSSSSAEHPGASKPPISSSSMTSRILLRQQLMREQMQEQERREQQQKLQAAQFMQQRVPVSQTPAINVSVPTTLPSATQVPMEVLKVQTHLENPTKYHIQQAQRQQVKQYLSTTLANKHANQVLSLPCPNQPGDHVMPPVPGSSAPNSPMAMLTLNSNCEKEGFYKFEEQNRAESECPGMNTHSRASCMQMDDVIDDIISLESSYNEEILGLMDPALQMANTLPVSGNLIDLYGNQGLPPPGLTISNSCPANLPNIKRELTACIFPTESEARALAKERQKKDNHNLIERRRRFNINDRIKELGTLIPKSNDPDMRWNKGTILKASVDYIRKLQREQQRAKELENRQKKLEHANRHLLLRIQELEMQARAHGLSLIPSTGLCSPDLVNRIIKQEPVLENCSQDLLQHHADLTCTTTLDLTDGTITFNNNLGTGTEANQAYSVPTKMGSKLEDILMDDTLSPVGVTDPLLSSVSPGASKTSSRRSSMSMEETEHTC
# Cytochrome P450 3A4, sequence (P08684 whole entry): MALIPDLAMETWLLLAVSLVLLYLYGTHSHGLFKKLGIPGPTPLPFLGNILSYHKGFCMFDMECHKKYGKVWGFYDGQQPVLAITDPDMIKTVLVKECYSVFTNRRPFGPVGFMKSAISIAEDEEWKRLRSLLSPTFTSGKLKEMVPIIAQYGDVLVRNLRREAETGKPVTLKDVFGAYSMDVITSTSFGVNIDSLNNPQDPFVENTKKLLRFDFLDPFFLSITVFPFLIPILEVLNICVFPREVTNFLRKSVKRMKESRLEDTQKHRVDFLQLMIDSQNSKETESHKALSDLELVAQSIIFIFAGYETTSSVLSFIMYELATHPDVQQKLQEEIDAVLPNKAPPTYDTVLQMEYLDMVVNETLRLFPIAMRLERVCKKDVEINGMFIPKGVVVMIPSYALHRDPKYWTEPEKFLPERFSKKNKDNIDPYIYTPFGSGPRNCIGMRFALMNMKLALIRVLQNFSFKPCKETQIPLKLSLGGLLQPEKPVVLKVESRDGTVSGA
# T1 sequence (P49327 whole entry, the tested form may be a part): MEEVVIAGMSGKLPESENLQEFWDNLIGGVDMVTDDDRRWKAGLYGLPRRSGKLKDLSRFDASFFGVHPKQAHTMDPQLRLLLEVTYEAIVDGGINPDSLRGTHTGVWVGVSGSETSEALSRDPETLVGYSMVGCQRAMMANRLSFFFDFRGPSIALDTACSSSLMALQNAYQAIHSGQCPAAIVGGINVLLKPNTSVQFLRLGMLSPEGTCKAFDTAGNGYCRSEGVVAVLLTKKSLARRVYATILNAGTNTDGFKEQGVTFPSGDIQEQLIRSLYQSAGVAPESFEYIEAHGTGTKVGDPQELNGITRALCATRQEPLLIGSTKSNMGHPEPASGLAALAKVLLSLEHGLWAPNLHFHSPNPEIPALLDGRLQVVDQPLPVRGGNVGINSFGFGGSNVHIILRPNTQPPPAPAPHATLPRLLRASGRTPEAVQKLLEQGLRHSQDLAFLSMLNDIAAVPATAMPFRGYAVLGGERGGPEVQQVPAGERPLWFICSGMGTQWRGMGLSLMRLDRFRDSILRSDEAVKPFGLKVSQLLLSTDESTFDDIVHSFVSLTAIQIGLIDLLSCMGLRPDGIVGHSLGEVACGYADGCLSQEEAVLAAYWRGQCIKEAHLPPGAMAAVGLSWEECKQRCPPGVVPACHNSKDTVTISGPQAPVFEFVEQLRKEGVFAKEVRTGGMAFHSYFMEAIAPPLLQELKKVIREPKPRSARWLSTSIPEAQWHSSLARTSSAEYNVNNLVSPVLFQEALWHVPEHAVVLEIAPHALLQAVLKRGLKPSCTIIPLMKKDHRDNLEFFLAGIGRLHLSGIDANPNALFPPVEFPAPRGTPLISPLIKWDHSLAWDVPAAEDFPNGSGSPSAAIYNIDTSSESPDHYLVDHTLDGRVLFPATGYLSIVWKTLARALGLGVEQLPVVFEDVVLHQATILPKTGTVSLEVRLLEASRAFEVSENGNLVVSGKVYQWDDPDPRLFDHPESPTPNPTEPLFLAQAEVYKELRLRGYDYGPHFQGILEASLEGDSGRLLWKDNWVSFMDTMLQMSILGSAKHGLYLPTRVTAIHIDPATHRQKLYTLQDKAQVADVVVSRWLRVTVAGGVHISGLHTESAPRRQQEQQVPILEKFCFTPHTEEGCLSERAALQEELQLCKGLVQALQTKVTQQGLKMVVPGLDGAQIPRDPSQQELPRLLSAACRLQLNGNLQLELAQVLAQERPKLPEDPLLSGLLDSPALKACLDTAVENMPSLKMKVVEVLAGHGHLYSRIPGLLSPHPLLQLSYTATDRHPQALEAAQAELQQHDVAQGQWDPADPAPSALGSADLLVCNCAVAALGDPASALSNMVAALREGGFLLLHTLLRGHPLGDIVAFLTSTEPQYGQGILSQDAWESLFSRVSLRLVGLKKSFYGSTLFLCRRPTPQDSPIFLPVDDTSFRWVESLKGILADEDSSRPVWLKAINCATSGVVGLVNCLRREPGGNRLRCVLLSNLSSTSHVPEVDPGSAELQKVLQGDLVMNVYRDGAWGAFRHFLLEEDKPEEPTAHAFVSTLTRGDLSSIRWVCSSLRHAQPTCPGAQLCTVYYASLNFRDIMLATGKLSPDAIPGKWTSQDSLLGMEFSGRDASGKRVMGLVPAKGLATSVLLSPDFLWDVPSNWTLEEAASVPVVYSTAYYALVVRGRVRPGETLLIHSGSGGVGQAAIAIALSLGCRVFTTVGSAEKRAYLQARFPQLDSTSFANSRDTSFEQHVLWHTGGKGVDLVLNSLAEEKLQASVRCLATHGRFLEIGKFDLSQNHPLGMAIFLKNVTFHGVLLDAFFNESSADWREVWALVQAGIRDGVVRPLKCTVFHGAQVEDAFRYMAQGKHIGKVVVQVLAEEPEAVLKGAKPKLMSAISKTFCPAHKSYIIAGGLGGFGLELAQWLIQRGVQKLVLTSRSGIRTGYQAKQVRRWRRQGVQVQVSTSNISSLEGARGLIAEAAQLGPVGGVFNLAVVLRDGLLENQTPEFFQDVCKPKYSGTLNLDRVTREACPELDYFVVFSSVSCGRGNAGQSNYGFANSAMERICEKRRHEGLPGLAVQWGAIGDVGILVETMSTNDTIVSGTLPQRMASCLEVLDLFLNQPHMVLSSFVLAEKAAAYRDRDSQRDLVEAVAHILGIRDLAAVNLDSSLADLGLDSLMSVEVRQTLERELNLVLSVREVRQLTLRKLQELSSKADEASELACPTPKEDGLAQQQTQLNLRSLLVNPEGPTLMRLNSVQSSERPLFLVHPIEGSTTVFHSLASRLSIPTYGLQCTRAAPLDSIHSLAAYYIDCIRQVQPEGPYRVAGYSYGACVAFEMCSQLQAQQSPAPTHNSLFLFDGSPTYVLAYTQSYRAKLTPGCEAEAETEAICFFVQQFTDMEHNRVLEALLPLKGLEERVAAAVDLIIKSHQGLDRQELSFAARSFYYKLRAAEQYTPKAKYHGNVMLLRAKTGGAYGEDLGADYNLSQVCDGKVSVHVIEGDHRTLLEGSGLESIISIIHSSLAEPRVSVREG
# Large T antigen, sequence (P03070 whole entry): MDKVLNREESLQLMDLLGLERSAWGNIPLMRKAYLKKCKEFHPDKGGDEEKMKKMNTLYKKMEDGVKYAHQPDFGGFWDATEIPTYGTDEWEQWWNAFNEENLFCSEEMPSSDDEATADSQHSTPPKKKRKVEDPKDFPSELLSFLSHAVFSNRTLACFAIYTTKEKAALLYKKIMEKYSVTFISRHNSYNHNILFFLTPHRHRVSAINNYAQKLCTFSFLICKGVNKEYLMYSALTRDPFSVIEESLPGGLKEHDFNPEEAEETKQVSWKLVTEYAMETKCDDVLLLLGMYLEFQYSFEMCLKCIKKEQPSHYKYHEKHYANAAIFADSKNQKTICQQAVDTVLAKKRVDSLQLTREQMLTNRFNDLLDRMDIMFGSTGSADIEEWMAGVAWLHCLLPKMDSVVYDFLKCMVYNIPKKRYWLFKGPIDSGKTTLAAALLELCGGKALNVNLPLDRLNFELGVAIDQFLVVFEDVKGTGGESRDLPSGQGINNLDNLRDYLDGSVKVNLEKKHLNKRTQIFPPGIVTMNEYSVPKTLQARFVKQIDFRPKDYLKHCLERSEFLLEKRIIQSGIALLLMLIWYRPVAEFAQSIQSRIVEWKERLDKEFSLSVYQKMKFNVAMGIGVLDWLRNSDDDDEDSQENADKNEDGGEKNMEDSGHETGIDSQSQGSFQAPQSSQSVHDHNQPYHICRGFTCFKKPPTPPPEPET
# T2 sequence (P63165 whole entry): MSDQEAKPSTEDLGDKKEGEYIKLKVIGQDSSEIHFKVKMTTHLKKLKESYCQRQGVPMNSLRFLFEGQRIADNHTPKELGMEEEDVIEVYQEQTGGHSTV
# T4 sequence (P11940 whole entry): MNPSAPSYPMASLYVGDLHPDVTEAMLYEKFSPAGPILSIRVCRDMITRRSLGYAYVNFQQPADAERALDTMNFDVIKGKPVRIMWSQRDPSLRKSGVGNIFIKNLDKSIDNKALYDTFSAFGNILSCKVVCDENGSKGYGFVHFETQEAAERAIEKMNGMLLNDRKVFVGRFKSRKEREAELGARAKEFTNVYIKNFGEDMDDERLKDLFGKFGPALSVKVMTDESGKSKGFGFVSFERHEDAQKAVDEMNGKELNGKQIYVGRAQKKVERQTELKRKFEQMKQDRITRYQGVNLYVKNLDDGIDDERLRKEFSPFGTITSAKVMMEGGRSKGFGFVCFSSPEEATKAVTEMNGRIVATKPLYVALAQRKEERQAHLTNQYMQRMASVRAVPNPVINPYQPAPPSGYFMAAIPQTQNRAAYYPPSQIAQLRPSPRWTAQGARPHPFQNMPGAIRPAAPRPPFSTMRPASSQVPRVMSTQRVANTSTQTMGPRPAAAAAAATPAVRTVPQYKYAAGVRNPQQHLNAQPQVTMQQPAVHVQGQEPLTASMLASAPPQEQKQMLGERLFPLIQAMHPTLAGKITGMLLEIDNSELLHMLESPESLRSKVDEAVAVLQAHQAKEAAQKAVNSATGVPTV
# Photoreceptor-specific nuclear receptor, sequence (Q9Y5X4 whole entry, the tested form may be a part): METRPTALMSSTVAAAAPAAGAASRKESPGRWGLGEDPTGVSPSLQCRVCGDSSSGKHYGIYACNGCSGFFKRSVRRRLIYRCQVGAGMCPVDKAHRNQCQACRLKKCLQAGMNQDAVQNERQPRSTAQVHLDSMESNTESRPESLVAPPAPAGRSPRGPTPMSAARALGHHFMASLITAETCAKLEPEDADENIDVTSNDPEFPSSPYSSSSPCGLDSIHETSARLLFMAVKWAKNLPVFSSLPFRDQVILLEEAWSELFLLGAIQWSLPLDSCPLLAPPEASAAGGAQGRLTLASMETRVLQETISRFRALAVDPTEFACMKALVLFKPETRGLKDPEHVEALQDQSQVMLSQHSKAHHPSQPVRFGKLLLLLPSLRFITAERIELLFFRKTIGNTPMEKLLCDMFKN
# FAD-linked sulfhydryl oxidase ALR, sequence (P55789 whole entry): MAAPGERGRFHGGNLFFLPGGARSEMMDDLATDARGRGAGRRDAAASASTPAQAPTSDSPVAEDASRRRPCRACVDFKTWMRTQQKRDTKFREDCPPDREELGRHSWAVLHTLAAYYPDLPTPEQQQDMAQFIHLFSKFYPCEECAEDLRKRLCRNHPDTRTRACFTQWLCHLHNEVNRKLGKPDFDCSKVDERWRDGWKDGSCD
structure (smiles),measurement,setting,value
O=C(NCCCN1CCOCC1)c1ccc(/C=C2\Oc3ccccc3N(Cc3ccccc3F)C2=O)cc1,IC50,[1],21.9 µM (active)
CCc1nc2c(OCc3ccc(Cl)cc3)cccn2c1N(C=O)Cc1ccc(OC)cc1,IC50,[2],8.01 µM (active)
same,IC50,[3],9.84 µM (active)
CCC(CO)Oc1cc(NC(=O)c2ccccc2C)c2ncn(C(C)C)c2c1 (stereo unspecified),IC50,[4],17.6 µM (active)
same,IC50,[5],> 66.6 µM (inactive)
CCN1CSC(=S)N(Cc2ccccc2)C1,CC50,[6],16.1 µM (active)
same,CC50,[7],20.7 µM (active)
CC(C)(C)NC(=O)CN(C(=O)CCN1CCCc2ccccc21)C(C)(C)C,IC50,[8],> 100 µM (inactive)
same,AC50,[9],4.37 µM (active)
same,IC50,[10],> 66 µM (inactive)
same,IC50,[11],> 66 µM (inactive)
CCCCCCN(C(=O)CCCCCN1C(=O)NC(c2ccc(-c3ccccc3)cc2)C(C(=O)OCc2ccccc2)=C1C)C(C(=O)NCCCC)c1ccccc1 (stereo unspecified),AC50,[12],2 µM (inconclusive)
O=C(NCCN1CCC(n2c(O)nc3ccccc32)CC1)c1cccc2c1-c1ccccc1C2=O,IC50,[4],17.9 µM (active)
same,IC50,[5],> 66.6 µM (inactive)
COc1cccc(/C=N/NC(=O)CSc2ccccc2C)c1O,EC50,[13],30.4 µM (active)
same,EC50,[14],52.4 µM (active)
Cc1ccccc1CN1C(=O)CSc2ccc(C(=O)N3CCOCC3)cc21,EC50,[13],> 350 µM (not active)
same,EC50,[14],> 350 µM (not active)
O=[N+]([O-])c1ccc2c(c1N1CCCCC1)=NC1(CCCCC1)[N+]=2[O-],IC50,[15],> 100 µM (active)
CC(C)OC(=O)[C@H]1[C@H](c2ccc(Cl)cc2)[C@@](C#N)(C(N)=O)[C@@H]2C=CC(C(N)=O)=CN21,IC50,[2],10.9 µM (active)
same,IC50,[3],7.56 µM (active)
O=C(C[C@H]1C[C@H](C(=O)N2CCOCC2)[C@@]2(CCC3CCCC3)c3[nH]c4cc(-c5ccco5)ccc4c3CCN2C1=O)NCCN1CCOCC1,IC50,[2],6.62 µM (active)
same,IC50,[3],3.76 µM (active)
COc1ccc(NC2CCCN(C(=O)CSc3ccccc3)C2)cc1 (stereo unspecified),IC50,[15],7.48 µM (active)
COC(=O)c1ccc(CN2[C@@H]3C[C@@H](O)CC[C@@H]3C[C@H]2C(=O)OC)cc1,AC50,[12],15.8 µM (inconclusive)
C[C@]12CC[C@H](O)C[C@@H]1CC[C@@H]1[C@@H]2CC[C@]2(C)[C@@H](C3=CC(=O)OC3)CC[C@]12O,AC50,[16],2.09 µM (active)
same,CC50,[6],1.65 µM (active)
same,IC50,[1],< 0.05 µM (active)
N#C/C(=C/c1ccc(N2CCCCC2)o1)C(=O)NCCc1c[nH]c2ccccc12,CC50,[6],> 25 µM (active)
same,CC50,[17],49.6 µM (active)
COc1ccc(OC)c(NC(=O)CSc2ncnc3sc(C)cc23)c1,IC50,[18],5.46 µM (active)
Cn1c(=O)c2nc(Nc3ccccc3)[nH]c2n(C)c1=O,IC50,[19],> 29.9 µM (inactive)
same,EC50,[20],> 29.9 µM (inactive)
N#Cc1c(N)sc(=S)c2c1CCCCC2,IC50,[15],46.4 µM (active)
same,IC50,[21],> 100 µM (active)
Oc1ccc(-c2nc3ccc4ccccc4c3c3c2CCC3)cc1O,AC50,[22],6.97 µM (active)
CC(=O)c1ccc(N2/C(=N/C(=O)COc3ccccc3)SC3CS(=O)(=O)CC32)cc1 (stereo unspecified),EC50,[13],> 350 µM (not active)
same,EC50,[14],> 350 µM (not active)
O=C(N/N=C(\c1ccccc1)c1cccnc1)c1cc(O)ccc1O,IC50,[15],6.14 µM (active)
Cc1ccc2nc(-c3ccc(N)cc3)sc2c1S(=O)(=O)O,AC50,[12],31.6 µM (inconclusive)
CCCCCCCCCCCCCC(=O)NO,AC50,[22],2.71 µM (active)
COc1ccc(CN(Cc2cc3cccc(C)c3n3nnnc23)C(=O)N2CCOCC2)cc1,IC50,[2],18.8 µM (active)
same,IC50,[3],26.4 µM (inactive)
CC(CNC(=O)C1CCCCC1C(=O)O)c1ccccc1 (stereo unspecified),IC50,[19],> 29.9 µM (inactive)
same,EC50,[20],> 29.9 µM (inactive)
O=C(NCCc1ccccc1)C1CCN(C(=O)c2ccc([N+](=O)[O-])cc2)CC1,IC50,[19],> 29.9 µM (inactive)
same,EC50,[20],> 29.9 µM (inactive)
CC(=O)N1c2ccc(S(=O)(=O)N3CCC(C(=O)Nc4cccc(Cl)c4)CC3)cc2CC1C (stereo unspecified),IC50,[23],1.47 µM (active)
CS(=O)(=O)c1ccc2nc(NC(=O)C3CC(=O)N(c4ccc(F)cc4)C3)sc2c1 (stereo unspecified),EC50,[13],> 350 µM (not active)
same,EC50,[14],> 350 µM (not active)
COc1cc(/C=C2\C(C)=C(C#N)c3nc(N)c(C#N)c(C)c32)ccc1OCC(=O)O,IC50,[15],58.1 µM (active)
CCOC(=O)Cc1csc(SCC(=O)Nc2sc3c(c2C(N)=O)CCC3)n1,IC50,[18],4.63 µM (active)
CCN(CC)S(=O)(=O)c1ccc(N2CCCC2)c(NC(=O)c2ccc([N+](=O)[O-])o2)c1,AC50,[24],3.18 µM (active)
same,CC50,[6],17.8 µM (active)
same,IC50,[1],> 25 µM (active)
Nc1ccc(-c2ccc(N)c(O)c2)cc1O,AC50,[12],31.6 µM (inconclusive)
Cc1ccc(Cl)cc1Nc1nc(-c2sc(NC(=O)C(C)(C)C)nc2C)cs1,IC50,[4],9.1 µM (active)
same,CC50,[17],21.4 µM (active)
same,IC50,[5],> 66.6 µM (inactive)
COc1ccc(CNC(=O)C(C)Cc2ccccc2)cc1O (stereo unspecified),AC50,[12],6.31 µM (inconclusive)
Nc1c(C(=O)OCC(=O)Nc2cccc([N+](=O)[O-])c2)[nH]c(=O)[nH]c1=O,IC50,[18],7.55 µM (active)

# Reference: ChEMBL document CHEMBL1201862, “PubChem BioAssay data set” (2004)
